Here are results for 1 molecule from patent US20090275099A1 (priority 2004, published 2009).

The EC50 is the concentration needed to bring the measured effect to its halfway point. As usually defined, the Ki is a dissociation constant, usually derived from enzyme kinetics or from competition with a known ligand.

Molecules are shown by their SMILES.

The test system of one data set is Ramos B cells. Put plainly: cell death of Ramos B cells, propidium iodide exclusion by flow cytometry, 24 h. As to conditions: Homo sapiens, Ramos, 24 h; read-out: Cell death EC50 (μM), Ramos cells. In kind it is cell-based, human. Background: Flow cytometry measures light scatter and fluorescence of single cells or particles in a stream.
Another data set concerns the target F1F0-ATPase (Homo sapiens, UniProt P05496+P48047). Put plainly: inhibition of the F1F0-ATPase (potencies stated in the description). In kind it is biochemical.
For data set [1], the system named is human skin in organ culture. Put plainly: RA-induced epidermal hyperplasia in human skin organ culture. The following applies: RA-exposed skin, Bz-423 5 μg/ml. The source says:
Replicate 2 mm full-thickness punch biopsies of sun-protected hip skin were obtained from young adult volunteers. The participation of human subjects in this project was approved by the University of Michigan Institutional Review Board, and all subjects provided written informed-consent prior to their inclusion in the study. Immediately upon biopsy, the tissue was immersed in culture medium consisting of Keratinocyte Basal Medium (KBM) (Cambrex Bioscience, Walkersville, Md.). KBM is a low-Ca^2+, serum-free modification of MCDB-153 medium optimized for high-density keratinocyte growth. It was supplemented with CaCl2 to bring the final Ca^2+ concentration to 1.4 mM. After transport to the laboratory on ice, the biopsies were incubated in a 24-well dish containing 250 μl of Ca^2+-supplemented KBM with or without additional treatments (e.g., RA and/or Bz-423). Cultures were incubated at 37° C. in an atmosphere of 95% air and 5% CO2. Other than to maintain the tissue in a minimal volume of medium, nothing further was done to ensure a strict air-liquid interface. Incubation was for 8 days, with change of medium and fresh treatments every second day. […] Average thickness values for untreated, retinoid exposed, and retinoid plus Bz-423-treated biopsies were determined. […]

A further data set deals with fibroblasts. Put plainly: intracellular ROS (DCF, flow cytometry). It counts as cell-based, human. The source says:
(§1) Foreskin tissue obtained from neonatal circumcisions was used as a source of epidermal keratinocytes and dermal fibroblasts. The use of foreskin tissue in this project was approved by the University of Michigan Institutional Review Board. Epidermal keratinocytes were isolated from foreskin tissue as described previously (see, e.g., Varani J, et al., (1994) J. Clin. Invest. 94:1747-1753; herein incorporated by reference in its entirety). Primary and early passage cells were maintained in Keratinocyte Growth Medium (KGM) (Cambrex Bioscience.). […]
(§2) 2′,7′-dichlorodihydrofluorescin diacetate (DCFH-DA, Molecular Probes, Eugene, Oreg.) was prepared as a 10 mM stock solution in DMSO prior to each use. […] After the indicated treatments, the fluorescence of the oxidized product 2′,7′-dichlorofluorescin (DCF) was monitored by flow cytometry using a FACSCalibur (BD Bioscience, San Diego, Calif.). For each sample, 10,000 events were recorded and the data analyzed to determine median fluorescence intensity.
(§3) Within 1 hour of treatment, Bz-423 increased ROS production in a dose-dependent manner in lymphoid cells. To determine if the anti-proliferative responses to Bz-423 in keratinocytes and fibroblasts similarly involve ROS generation, intracellular ROS levels in Bz-423 treated cells were measured. […]

The test system of a further data set is keratinocytes. Put plainly: intracellular ROS (DCF, flow cytometry). It counts as cell-based, human.
Source text: as §1, §2, §3

For a further data set, the system named is Jurkat cells. Put plainly: cell death at 24 h. As to conditions: Homo sapiens, Jurkat, 24 h, read-out: Cell death EC50 (μM), Jurkat cells. In kind it is cell-based. How it is done:
Since an early mitochondrial superoxide (O2^−) mediates apoptosis induced by Bz-423, the O2^− response of cells 1 h following incubation with drug was examined, as well as cell death at 24 h, as previously described (see, e.g., Blatt, N. B., et al., 2002 J Clin Invest 110, 1123-1132; incorporated herein by reference in its entirety).

As for `CN1C(=O)C(Cc2ccc3ccccc3c2)N=C(c2ccc(O)cc2)c2cc(Cl)ccc21` (stereo not drawn) [Bz-423], the values for the EC50 in the data set on Ramos B cells and with Jurkat cells were 6.3 µM and 6 µM, respectively. This molecule registered a Ki at F1F0-ATPase of roughly 9 µM. For the same molecule, the “histologic finding at high concentration” value in data set [1] is on record as “necrosis was observed”. Besides, the “lowest dose with an ROS response” value with fibroblasts and with keratinocytes was 250 nM each time.
